Data taken from patent US8710224B2, “Heterocyclic compounds as CCR2B antagonists” (AstraZeneca AB, priority 2004, dated 2014).

target: T1, recombinant human CCR5 receptor (Homo sapiens, UniProt P51681); assay: Radioligand binding assay for inhibition of the binding of MIP-1α; conditions: displacement of 0.1 nM iodinated MIP-1α; membranes of Chinese hamster ovary cells expressing CCR5
T1 construct: expressed in transfected cells; host or cells: Chinese hamster ovary (CHO) cells; membranes
In short: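 Membranes from CHO cells expressing recombinant human CCR5 were incubated with 0.1 nM iodinated MIP-1α, scintillation proximity beads and compound at various concentrations. Bound radioligand was measured by scintillation counting.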

T1 sequence (P51681 whole entry): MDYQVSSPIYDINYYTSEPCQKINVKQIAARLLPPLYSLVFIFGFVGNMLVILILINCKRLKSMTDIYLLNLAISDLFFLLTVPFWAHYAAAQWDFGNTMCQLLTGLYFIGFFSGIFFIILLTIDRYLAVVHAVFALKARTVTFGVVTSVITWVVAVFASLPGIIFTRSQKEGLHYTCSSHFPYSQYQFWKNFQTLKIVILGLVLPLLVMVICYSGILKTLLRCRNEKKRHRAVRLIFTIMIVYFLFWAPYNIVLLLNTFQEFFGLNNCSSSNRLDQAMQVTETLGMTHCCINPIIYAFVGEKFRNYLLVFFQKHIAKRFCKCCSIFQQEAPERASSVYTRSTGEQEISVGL

IC50, < 10 µM:
CCCC(C)N1CCOC(CN2CCN(C(=O)Nc3ccc(F)c(Cl)c3)CC2)C1 (stereo in doubt) [Example 237, N-(3-chloro-4-fluorophenyl)-4-({(2R)-4-[(1S)-1-methylbutyl]morpholin-2-yl}methyl)piperazine-1-carboxamide]
O=C(Nc1ccc(Cl)c(Cl)c1)N1CCN(C[C@@H]2CCCN(Cc3ccc(O)nc3)C2)CC1 [Example 257, N-(3,4-dichlorophenyl)-4-({(3R)-1-[(6-hydroxypyridin-3-yl)methyl]piperidin-3-yl}methyl)piperazine-1-carboxamide]
O=C(Nc1ccc(Cl)c(Cl)c1)N1CCN(C[C@H]2CCN([C@H]3CC[C@H](O)CC3)C2)CC1 [Example 232, N-(3,4-dichlorophenyl)-4-{[(3R)-1-(trans-4-hydroxycyclohexyl)pyrrolidin-3-yl]methyl}piperazine-1-carboxamide]
O=C(Nc1ccc(Cl)c(Cl)c1)N1CCN(C(=O)[C@H]2CN(C3CCCCC3)CCN2)CC1 [Example 277, 4-{[(2R)-4-Cyclohexylpiperazin-2-yl]carbonyl}-N-(3,4-dichlorophenyl)piperazine-1-carboxamide]
CC(C)N1CCN[C@@H](C(=O)N2CCN(C(=O)Nc3cccc(Oc4ccccc4)c3)CC2)C1 [Example 260, 4-{[(2R)-4-Isopropylpiperazin-2-yl]carbonyl}-N-(3-phenoxyphenyl) piperazine-1-carboxamide]
O=C(Nc1cccc(Cl)c1)N1CCN(C[C@@H]2CCCN(CCc3ccccc3)C2)CC1 [Example 180, N-(3-chlorophenyl)-4-{[(3R)-1-(2-phenylethyl)piperidin-3-yl]methyl} piperazine-1-carboxamide]
CC(C)CC(C)N1CCOC(CN2CCN(C(=O)Nc3ccc(F)c(Cl)c3)CC2)C1 (stereo in doubt) [Example 259, N-(3-chloro-4-fluorophenyl)-4-({(2R)-4-[(1R)-1,3-dimethylbutyl]morpholin-2-yl}methyl)piperazine-1-carboxamide]
